From patent publication US8349846B2, “Fused pyrimidine derivatives as TRPV3 modulators” (Glenmark Pharmaceuticals, S.A., priority 2008, dated 2013)

Target: T1, Human TRPV3 (Homo sapiens, UniProt Q8NET8)
T1 construct: expressed in transfected cells; host or cells: CHO cells (selected with G-418)
T1 sequence (Q8NET8 1-790): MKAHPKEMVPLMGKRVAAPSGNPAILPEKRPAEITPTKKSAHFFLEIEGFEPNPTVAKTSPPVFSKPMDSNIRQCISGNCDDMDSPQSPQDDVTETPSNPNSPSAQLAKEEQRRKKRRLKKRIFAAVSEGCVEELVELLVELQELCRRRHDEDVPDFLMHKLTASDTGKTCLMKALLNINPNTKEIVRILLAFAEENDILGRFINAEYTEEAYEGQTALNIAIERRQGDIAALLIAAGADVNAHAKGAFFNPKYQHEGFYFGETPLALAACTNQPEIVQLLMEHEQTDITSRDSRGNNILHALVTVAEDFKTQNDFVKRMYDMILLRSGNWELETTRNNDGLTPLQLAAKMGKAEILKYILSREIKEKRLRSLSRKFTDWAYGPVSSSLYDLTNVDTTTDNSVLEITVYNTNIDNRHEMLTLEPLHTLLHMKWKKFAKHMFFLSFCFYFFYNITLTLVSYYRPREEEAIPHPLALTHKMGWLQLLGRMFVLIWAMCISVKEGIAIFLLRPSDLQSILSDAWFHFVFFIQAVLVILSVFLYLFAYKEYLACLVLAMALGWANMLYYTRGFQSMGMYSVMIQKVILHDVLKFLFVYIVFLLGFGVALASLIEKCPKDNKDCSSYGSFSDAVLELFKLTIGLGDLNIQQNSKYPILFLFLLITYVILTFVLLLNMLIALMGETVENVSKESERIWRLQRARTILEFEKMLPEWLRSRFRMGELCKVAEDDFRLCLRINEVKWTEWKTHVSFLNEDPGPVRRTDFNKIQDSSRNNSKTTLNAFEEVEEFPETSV
Experiment: Screening for TRPV3 antagonist using the 45Calcium uptake assay (inhibition of 2-APB induced cellular uptake of radioactive calcium)
Assay type: cell-based
Settings: Human TRPV3 expressing CHO cells, 2-APB 500 μM; for inhibition at 1 µM / inhibition at 10 µM: CHO; for inhibition at 1 µM: read-out: Percentage inhibition at 1.0 μM; for inhibition at 10 µM: 10.0 μM test compound, read-out: Percentage inhibition at 10.0 μM
Description: The illustrative examples of the present invention are screened for TRPV3 activity according to a modified procedure described in Tóth, A., Kedei, N., Wang, Y. and Blumberg, P. M. Life Sciences (2003), 73, 487-498. The screening of the compounds can be carried out by other methods and procedures known to a person skilled in the art. Such screening methods may be found in (a) Hu, H.-Z. et al. J. Biol. Chem. (2004), 279, 35741-35747; (b) Smith, G. D. et al. Nature (2002), 418, 186-190; (c) Peier, A. M. et al. Science (2002), 296, 2046-2049.
Screening for TRPV3 Antagonist Using the ^45Calcium Uptake Assay:
The inhibition of TRPV3 receptor activation was followed as inhibition of 2-aminoethxydiphenylborate (2-APB) induced cellular uptake of radioactive calcium. Test compounds were dissolved in dimethyl sulfoxide (DMSO) to prepare 20 mM stock solution and then diluted using plain medium with DMEM/F-12 containing 1.8 mM CaCl2 to get desired concentration. Final concentration of DMSO in the reaction was 0.5% (v/v). Human TRPV3 expressing CHO cells were grown in DMEM/F-12 medium with 10% FBS, 1% penicillin-streptomycin solution, 400 μg/ml of G-418. Cells were seeded 24 h prior to the assay in 96 well plates so as to get ˜50,000 cells per well on the day of experiment. Cells were treated with test compounds for 10 minutes followed by addition of 2-APB at a final concentration of 500 μM and 5 μCi/ml ^45Ca^+2 for 4 minutes. Cells were washed and lysed using buffer containing 1% Triton X-100, 0.1% deoxycholate and 0.1% SDS. Radioactivity in the lysate was measured in Packardt Top count after addition of liquid scintillant. Concentration response curves were plotted as a % of maximal response obtained in the absence of test antagonist. IC50 value was calculated from concentration response curve by nonlinear regression analysis using GraphPad PRISM software.
Percentage inhibition at concentrations of 1.0 μM and 10.0 μM are given in the table along with IC50 (nM) values for selected examples.

inhibition at 1 µM (1.0 μM test compound) [%] | inhibition at 10 µM [%] | IC50 [nM] | Percentage inhibition at 1.0 μM (1.0 μM test compound) [%] | Structure (SMILES)
0.5 | 19.4 |  |  | O=c1c(-c2ccccc2)c(/C=C/c2ccc(Cl)cc2)nc2ccccn12 [Example 1, 2-[(E)-2-(4-Chlorophenyl)vinyl]-3-phenyl-4H-pyrido[1,2-a]pyrimidin-4-one]
0 | 0.2 |  |  | COc1cccc(/C=C/c2nc3ccccn3c(=O)c2-c2ccc(C(=O)O)cc2)c1OC1CCCC1 [Example 29, 4-{4-Oxo-2-[(E)-2-(2-cyclopentyloxy-3-methoxy)phenylvinyl]-4H-pyrido[1,2-a]pyrimidin-3-yl}benzoic acid]
78.7 | 90.2 | < 500 |  | COc1cccc(/C=C/c2nc3ccc(Cl)cn3c(=O)c2-c2ccc(C#N)cc2)c1OC1CCCC1 [Example 43, 4-{7-Chloro-2-[(E)-2-(2-cyclopentyloxy-3-methoxy)phenylvinyl]-4-oxo-4H-pyrido[1,2-a]pyrimidin-3-yl}benzonitrile]
70.1 | 91.4 |  |  | COc1cccc(/C=C/c2nc3ccccn3c(=O)c2-c2ccc3c(c2)OCO3)c1OC1CCCC1 [Example 37, 3-(1,3-Benzodioxol-5-yl)-2-[(E)-2-(2-cyclopentyloxy-3-methoxy)phenylvinyl]-4H-pyrido[1,2-a]pyrimidin-4-one]
52 | 76.4 |  |  | COc1cccc(/C=C/c2nc3ccccn3c(=O)c2-c2ccc([N+](=O)[O-])cc2)c1OC1CCCC1 [Example 30, 2-{(E)-2-[(2-Cyclopentyloxy)-3-methoxyphenyl]vinyl}-3-(4-nitro)phenyl-4H-pyrido[1,2-a]pyrimidin-4-one]
34.2 | 89.6 |  |  | COc1cccc(/C=C/c2nc3ccccn3c(=O)c2-c2ccc(NC(C)=O)cc2)c1OC1CCCC1 [Example 32, N-(4-{2-[(E)-2-(2-Cyclopentyloxy-3-methoxy)phenylvinyl]-4-Oxo-4H-pyrido[1,2-a]pyrimidin-3-yl}phenyl)acetamide]
76.3 | 89.7 |  |  | CCCCOc1c(/C=C/c2nc3ccccn3c(=O)c2-c2ccc(C(F)(F)F)cc2)cccc1OC [Example 8]
78 | 94.3 | < 500 |  | COc1cccc(/C=C/c2nc3ccccn3c(=O)c2-c2ccc(C(C)=O)cc2)c1OC1CCCC1 [Example 33, 3-(4-Acetylphenyl)-2-[(E)-2-(2-cyclopentyloxy-3-methoxy)phenylvinyl]-4H-pyrido[1,2-a]pyrimidin-4-one]
18.4 | 63.3 |  |  | COc1cccc(/C=C/c2nc3ccccn3c(=O)c2-c2ccncc2)c1OC1CCCC1 [Example 35, 2-{(E)-2-[2-(Cyclopentyloxy)-3-methoxyphenyl]vinyl}-3-pyridin-4-yl-4H-pyrido[1,2-a]-pyrimidin-4-one]
79.5 | 93.5 | < 500 |  | COc1cccc(/C=C/c2nc3ccccn3c(=O)c2-c2ccc(OC(F)(F)F)cc2)c1OCC1CC1 [Example 18]
14.4 | 77.9 | 1000 to 2500 |  | O=c1c(-c2ccc(C(F)(F)F)cc2)c(/C=C/c2cccs2)nc2ccccn12 [Example 3, 2-[(E)-2-(2-Thienyl)vinyl]-3-[4-(trifluoromethyl)phenyl]-4H-pyrido[1,2-a]pyrimidin-4-one]
48 | 69.3 |  |  | COc1cccc(-c2c(/C=C/c3cccc(OC)c3OC3CCCC3)nc3ccccn3c2=O)c1 [Example 26, 2-{(E)-2-[(2-Cyclopentyloxy-3-methoxy)phenyl]vinyl}-3-(3-methoxy)phenyl-4H-pyrido-[1,2-a]pyrimidin-4-one]
42.2 | 82.4 | 500 to 1000 |  | COc1cccc(/C=C/c2nc3ccccn3c(=O)c2-c2ccc(F)nc2)c1OC1CCCC1 [Example 36, 2-{(E)-2-[2-(Cyclopentyloxy-3-methoxy)phenyl]vinyl}-3-(6-fluoro)pyridin-3-yl-4H-pyrido[1,2-a]pyrimidin-4-one]
77.9 | 98.9 |  |  | CCCOc1c(/C=C/c2nc3ccccn3c(=O)c2-c2ccc(C#N)cc2)cccc1OC [Example 7]
5.7 | 11.2 |  |  | O=c1c(-c2ccc(C(F)(F)F)cc2)c(/C=C/c2cccnc2)nc2ccccn12 [Example 2, 2-{(E)-2-(Pyridin-3-yl)vinyl}-3-(4-trifluoromethyl)phenyl-4H-pyrido[1,2-a]pyrimidin-4-one]
82.8 | 100 |  |  | CCCCOc1c(/C=C/c2nc3ccccn3c(=O)c2-c2ccc(C#N)cc2)cccc1OC [Example 10]
83.3 | 95.3 | < 500 |  | COc1cccc(/C=C/c2nc3ccccn3c(=O)c2-c2ccc(C(F)(F)F)cc2)c1OCC1CC1 [Example 17]
 | 76.2 |  | 41.6 | COc1cccc(/C=C/c2nc3ccccn3c(=O)c2-c2ccc(C#N)cc2)c1OC1CCCC1 [Example 5, 4-{2-[(E)-2-[2-(Cyclopentyloxy)-3-methoxyphenyl)vinyl]-4-oxo-4H-pyrido[1,2-a]pyrimidin-3-yl}benzonitrile]
54.8 | 87.6 |  |  | COc1cccc(/C=C/c2nc3c(OC)cccn3c(=O)c2-c2ccc(C#N)cc2)c1OC1CCCC1 [Example 41, 4-{2-[(E)-2-(2-Cyclopentyloxy-3-methoxyphenyl)vinyl]-9-methoxy-4-oxo-4H-pyrido[1,2-a]pyrimidin-3-yl}benzonitrile]
62.8 | 86.7 | 500 to 1000 |  | COc1cccc(/C=C/c2nc3ccccn3c(=O)c2-c2ccc(C(F)(F)F)cc2)c1OC1CCCC1 [Example 23, 2-{(E)-2-[2-(Cyclopentyloxy)-3-methoxyphenyl]vinyl}-3-(4-trifluoromethyl)phenyl-4H-pyrido[1,2-a]pyrimidin-4-one]
54.2 | 77.6 | 1000 to 2500 |  | COc1cccc(/C=C/c2nc3ccccn3c(=O)c2-c2cccc(OC(C)C)c2)c1OC1CCCC1 [Example 27, 3-(3-Isopropoxyphenyl)-2-[(E)-2-(2-cyclopentyloxy-3-methoxy)phenylvinyl]-4H-pyrido-[1,2-a]pyrimidin-4-one]
84.6 | 96.1 | < 500 |  | COc1cccc(/C=C/c2nc3ccccn3c(=O)c2-c2ccc3ncccc3c2)c1OC1CCCC1 [Example 39, 2-[(E)-2-(2-Cyclopentyloxy-3-methoxy)phenylvinyl]-3-quinolin-6-yl-4H-pyrido[1,2-a]pyrimidin-4-one]
33.8 | 79.8 |  |  | COc1cccc(/C=C/c2nc3ccccn3c(=O)c2-c2ccccc2)c1OCC1CC1 [Example 16, 2-{(E)-2-[2-(Cyclopropylmethoxy)-3-methoxyphenyl]vinyl}-3-phenyl-4H-pyrido[1,2-a]-pyrimidin-4-one]
85.1 | 92.3 | < 500 |  | CCCCCCOc1c(/C=C/c2nc3ccccn3c(=O)c2-c2ccc(C#N)cc2)cccc1OC [Example 14]
